# Laboratory results from patent publication US20200024278A1, “COMPOSITION COMPRISING ANTIBIOTIC COMPOUND AND AN HETEROCYCLIC COMPOUND AND THEIR USE IN PREVENTING OR TREATING BACTERIAL INFECTIONS” (MUTABILIS, priority 2016, published 2020).
# Where two headings read alike, the source gives them in different places.
# Legend:
# Test in all cases: MIC, broth microdilution (CLSI), substance alone or ATB combined with compound at 4 or 8 μg/mL
# KPN UFR42 = format: cell-based, K. pneumoniae; conditions: KPN UFR42
# In short: (§1)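 Antibiotic MICs were determined in presence of fixed compound at 4 or 8 μg/mL, and compound MICs alone, by visual growth inhibition. Inoculum 5·10^5 CFU/mL in ca-MHB, incubated 35 °C for 16-20 h per CLSI-M7-A7. Glucose-6-phosphate (25 μg/ml) added when fosfomycin was tested.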
# KPN 6299 = format: cell-based, K. pneumoniae; conditions: for MIC: Klebsiella pneumoniae
# In short: as §1
# KPN BAA-1898 = format: cell-based, K. pneumoniae; conditions: KPN BAA-1898; for MIC: Klebsiella pneumoniae, BAA1898
# In short: as §1
# PAE UFR48 = format: cell-based, P. aeruginosa; conditions: PAE UFR48
# In short: as §1
# PAE UFR90 = format: cell-based, P. aeruginosa; conditions: PAE UFR90
# In short: as §1
# PAE 105250 = format: cell-based, P. aeruginosa; conditions: PAE 105250
# In short: as §1
# [1] = antibiotic alone, read-out: MIC ATB alone
# [2] = Pseudomonas aeruginosa, antibiotic alone, read-out: MIC ATB alone
structure (smiles),measurement,setting,value
"CC1(C)S[C@@H]2[C@H](NC(=O)[C@H](N)c3ccc(O)cc3)C(=O)N2[C@H]1C(=O)O [AMX, Amoxicillin, reference compound]",MIC ATB combined with Example 1 @8 μg/ml,KPN UFR42; with Example 1 @8 μg/ml,>32 µg/mL
same,MIC ATB combined with Example 1 @8 μg/ml,KPN UFR42; with Example 1 at 8 μg/ml,>32 µg/mL
same,MIC ATB combined with Example 7 @8 μgml,KPN UFR42; with Example 7 at 8 μg/ml,>32 µg/mL
same,MIC ATB combined with Example 9 @4 μg/ml,KPN UFR42; with Example 9 @4 μg/ml,>32 µg/mL
same,MIC ATB combined with Example 9 @4 μg/ml,KPN UFR42; with Example 9 at 4 μg/ml,>32 µg/mL
same,MIC ATB combined with Example 11 @8 μg/ml,KPN UFR42; with Example 11 at 8 μg/ml,<0.031 µg/mL
same,MIC ATB combined with Example 12 @8 μg/ml,KPN UFR42; with Example 12 at 8 μg/ml,<0.031 µg/mL
same,MIC ATB combined with Example 13 @8 μg/ml,KPN UFR42; with Example 13 at 8 μg/ml,>32 µg/mL
same,MIC ATB combined with Example 14 @8 μg/ml,KPN UFR42; with Example 14 at 8 μg/ml,<0.031 µg/mL
same,MIC ATB combined with Example 15 @4 μgml,KPN UFR42; with Example 15 at 4 μg/ml,<0.031 µg/mL
same,MIC ATB combined with Example 16 @4 μg/ml,KPN UFR42; with Example 16 at 4 μg/ml,<0.031 µg/mL
same,MIC,"KPN UFR42; Klebsiella pneumoniae, antibiotic alone, read-out: MIC ATB alone",> 256 µg/mL
same,MIC,KPN 6299; [1],> 1020 µg/mL
same,MIC,"KPN 6299; substance alone, read-out: MIC",> 1020 µg/mL
same,MIC ATB combined with Example 1 @8 μg/ml,KPN 6299; with Example 1 @8 μg/ml,>32 µg/mL
same,MIC ATB combined with Example 1 @8 μg/ml,KPN 6299; with Example 1 at 8 μg/ml,>32 µg/mL
same,MIC ATB combined with Example 7 @8 μgml,KPN 6299; with Example 7 at 8 μg/ml,0.5 µg/mL
same,MIC ATB combined with Example 9 @4 μg/ml,KPN 6299; with Example 9 @4 μg/ml,<=0.5 μg/mL
same,MIC ATB combined with Example 9 @4 μg/ml,KPN 6299; with Example 9 at 4 μg/ml,<0.031 µg/mL
same,MIC ATB combined with Example 11 @8 μg/ml,KPN 6299; with Example 11 at 8 μg/ml,<0.031 µg/mL
same,MIC ATB combined with Example 12 @8 μg/ml,KPN 6299; with Example 12 at 8 μg/ml,<0.031 µg/mL
same,MIC ATB combined with Example 13 @8 μg/ml,KPN 6299; with Example 13 at 8 μg/ml,2 µg/mL
same,MIC ATB combined with Example 14 @8 μg/ml,KPN 6299; with Example 14 at 8 μg/ml,<0.031 µg/mL
same,MIC ATB combined with Example 15 @4 μgml,KPN 6299; with Example 15 at 4 μg/ml,<0.031 µg/mL
same,MIC ATB combined with Example 16 @4 μg/ml,KPN 6299; with Example 16 at 4 μg/ml,<0.031 µg/mL
same,MIC ATB combined with Example 1 @8 μg/ml,KPN BAA-1898; with Example 1 @8 μg/ml,>32 µg/mL
same,MIC ATB combined with Example 1 @8 μg/ml,KPN BAA-1898; with Example 1 at 8 μg/ml,>32 µg/mL
same,MIC ATB combined with Example 7 @8 μgml,KPN BAA-1898; with Example 7 at 8 μg/ml,>32 µg/mL
same,MIC ATB combined with Example 9 @4 μg/ml,KPN BAA-1898; with Example 9 @4 μg/ml,<0.031 µg/mL
same,MIC ATB combined with Example 9 @4 μg/ml,KPN BAA-1898; with Example 9 at 4 μg/ml,<0.031 µg/mL
same,MIC ATB combined with Example 11 @8 μg/ml,KPN BAA-1898; with Example 11 at 8 μg/ml,<0.031 µg/mL
same,MIC ATB combined with Example 12 @8 μg/ml,KPN BAA-1898; with Example 12 at 8 μg/ml,<0.031 µg/mL
same,MIC ATB combined with Example 13 @8 μg/ml,KPN BAA-1898; with Example 13 at 8 μg/ml,>32 µg/mL
same,MIC ATB combined with Example 14 @8 μg/ml,KPN BAA-1898; with Example 14 at 8 μg/ml,<0.031 µg/mL
same,MIC ATB combined with Example 15 @4 μgml,KPN BAA-1898; with Example 15 at 4 μg/ml,<0.031 µg/mL
same,MIC ATB combined with Example 16 @4 μg/ml,KPN BAA-1898; with Example 16 at 4 μg/ml,<0.031 µg/mL
same,MIC,KPN BAA-1898; [1],> 1020 µg/mL
same,MIC,"KPN BAA-1898; substance alone, read-out: MIC",> 1020 µg/mL
same,MIC ATB combined with Example 1 @8 μg/ml,PAE UFR48; with Example 1 @8 μg/ml,<0.031 µg/mL
same,MIC ATB combined with Example 1 @8 μg/ml,PAE UFR48; with Example 1 at 8 μg/ml,<0.031 µg/mL
same,MIC ATB combined with Example 7 @8 μgml,PAE UFR48; with Example 7 at 8 μg/ml,>32 µg/mL
same,MIC ATB combined with Example 9 @4 μg/ml,PAE UFR48; with Example 9 @4 μg/ml,>32 µg/mL
same,MIC ATB combined with Example 9 @4 μg/ml,PAE UFR48; with Example 9 at 4 μg/ml,>32 µg/mL
same,MIC ATB combined with Example 11 @8 μg/ml,PAE UFR48; with Example 11 at 8 μg/ml,>32 µg/mL
same,MIC ATB combined with Example 12 @8 μg/ml,PAE UFR48; with Example 12 at 8 μg/ml,>32 µg/mL
same,MIC ATB combined with Example 13 @8 μg/ml,PAE UFR48; with Example 13 at 8 μg/ml,>32 µg/mL
same,MIC ATB combined with Example 14 @8 μg/ml,PAE UFR48; with Example 14 at 8 μg/ml,>32 µg/mL
same,MIC ATB combined with Example 15 @4 μgml,PAE UFR48; with Example 15 at 4 μg/ml,>32 µg/mL
same,MIC ATB combined with Example 16 @4 μg/ml,PAE UFR48; with Example 16 at 4 μg/ml,>32 µg/mL
same,MIC,PAE UFR48; [2],> 1020 µg/mL
same,MIC ATB combined with Example 1 @8 μg/ml,PAE UFR90; with Example 1 @8 μg/ml,<0.031 µg/mL
same,MIC ATB combined with Example 1 @8 μg/ml,PAE UFR90; with Example 1 at 8 μg/ml,<0.031 µg/mL
same,MIC ATB combined with Example 7 @8 μgml,PAE UFR90; with Example 7 at 8 μg/ml,>32 µg/mL
same,MIC ATB combined with Example 9 @4 μg/ml,PAE UFR90; with Example 9 @4 μg/ml,>32 µg/mL
same,MIC ATB combined with Example 9 @4 μg/ml,PAE UFR90; with Example 9 at 4 μg/ml,>32 µg/mL
same,MIC ATB combined with Example 11 @8 μg/ml,PAE UFR90; with Example 11 at 8 μg/ml,>32 µg/mL
same,MIC ATB combined with Example 12 @8 μg/ml,PAE UFR90; with Example 12 at 8 μg/ml,>32 µg/mL
same,MIC ATB combined with Example 13 @8 μg/ml,PAE UFR90; with Example 13 at 8 μg/ml,>32 µg/mL
same,MIC ATB combined with Example 14 @8 μg/ml,PAE UFR90; with Example 14 at 8 μg/ml,>32 µg/mL
same,MIC ATB combined with Example 15 @4 μgml,PAE UFR90; with Example 15 at 4 μg/ml,>32 µg/mL
same,MIC ATB combined with Example 16 @4 μg/ml,PAE UFR90; with Example 16 at 4 μg/ml,>32 µg/mL
same,MIC,PAE UFR90; [2],> 32 µg/mL
same,MIC ATB combined with Example 7 @8 μgml,PAE 105250; with Example 7 at 8 μg/ml,>32 µg/mL
same,MIC ATB combined with Example 9 @4 μg/ml,PAE 105250; with Example 9 @4 μg/ml,>32 µg/mL
same,MIC ATB combined with Example 9 @4 μg/ml,PAE 105250; with Example 9 at 4 μg/ml,>32 µg/mL
